Assay results from patent publication US6806286B2, “Pyrrolecarboxamides and pyrrolethioamides as fungicides” (Syngenta Crop Protection, Inc., priority 2000, dated 2004).

What was measured:
Podosphaera leucotricha = assay: Action against Podosphaera leucotricha/apple (powdery mildew on apple); assay type: in vivo; settings: apple seedlings cv. McIntosh, spray 0.002% active ingredient, inoculated one day after application, assessed after 12 days incubation
Method: Action Against Podosphaera leucotricha/apple (Powdery Mildew on Apple)
5 week old apple seedlings cv. […] One day after application apple plants are inoculated by shaking plants infected with apple powdery mildew above the test plants. After an incubation period of 12 days at 22° C. and 60% r. h. under a light regime of 14/10 h (light/dark) the disease incidence is assessed.

Venturia Inaequalis = assay: Action against Venturia inaequalis/apple (scab on apple); assay type: in vivo; settings: apple seedlings cv. McIntosh, spray 0.02% active ingredient, inoculated one day after application, assessed after 4+4+4 days incubation
Method: Action Against Venturia Inaequalis/apple (Scab on Apple)
4 week old apple seedlings cv. […] One day after application apple plants are inoculated by spraying a spore suspension (4×10^5 conidia/ml) on the test plants. After an incubation period of 4 days at 21° C. and 95% r. h. the plants are placed for 4 days at 21° C. and 60% r. h. in a greenhouse. After another 4 day incubation period at 21° C. and 95% r. h. the disease incidence is assessed.

Etysiphe graminis = assay: Action against Etysiphe graminis/barley (powdery mildew on barley); assay type: in vivo; settings: barley plants cv. Express, spray 0.02% active ingredient, inoculated one day after application, assessed after 6 days incubation
Method: Action Against Etysiphe graminis/barley (Powdery Mildew on Barley)
1 week old barley plants cv. […] One day after application barley plants are inoculated by shaking powdery mildew infected plants above the test plants. After an incubation period of 6 days at 20° C./18° C. (day/night) and 60% r. h. in a greenhouse the disease incidence is assessed.

Botryis cinerea = assay: Action against Botryis cinerea/apple (Botrytis on apple fruits); assay type: in vivo, B. cinerea; settings: apple fruit cv. Golden Delicious, 30 μl droplets 0.002% active ingredient in drilled holes, inoculated two hours after application, assessed after 7 days
Method: Action Against Botryis cinerea/apple (Botrytis on Apple Fruits)
In an apple fruit cv. […] Two hours after application 50 μl of a spore suspension of B. cinerea (4×10^5 conidia/ml) are pipetted on the application sites. After an incubation period of 7 days at 22° C. in a growth chamber the disease incidence is assessed.

Boftis cinerea = assay: Action against Boftis cinerea/grape (Botrytis on grapes); assay type: in vivo; settings: grape seedlings cv. Gutedel, spray 0.002% active ingredient, inoculated two days after application, assessed after 4 days incubation
Method: Action Against Boftis cinerea/grape (Botrytis on Grapes)
5 week old grape seedlings cv. […] Two days after application grape plants are inoculated by spraying a spore suspension (1×10^6 conidia/ml) on the test plants. After an incubation period of 4 days at 21° C. and 95% r. h. in a greenhouse the disease incidence is assessed.

Botryts cinerea = assay: Action against Botryts cinerea/tomato (Botrytis on tomatoes); assay type: in vivo; settings: tomato plants cv. Roter Gnom, spray 0.002% active ingredient, inoculated two days after application, assessed after 4 days incubation
Method: Action Against Botryts cinerea/tomato (Botrytis on Tomatoes)
4 week old tomato plants cv. […] Two days after application tomato plants are inoculated by spraying a spore suspension (1×10^5 conidia/ml) on the test plants. After an incubation period of 4 days at 20° C. and 95% r. h. in a growth chamber the disease incidence is assessed.

Puenophora teres = assay: Action against Puenophora teres/barley (net blotch on barley); assay type: in vivo; settings: barley plants cv. Express, spray 0.002% active ingredient, inoculated two days after application, assessed 4 days after inoculation
Method: Action Against Puenophora teres/barley (Net Blotch on Barley)
1 week old barley plants cv. […] Two days after application barley plants are inoculated by spraying a spore suspension (3×10^4 conidia/ml) on the test plants. After an incubation period of 2 days at 20° C. and 95% r. h. plants are kept for 2 days at 20° C. and 60% r.h. in a greenhouse. The disease incidence is assessed 4 days after inoculation.

Septoria nodorum = assay: Action against Septoria nodorum/wheat (Septoria leaf spot on wheat); assay type: in vivo; settings: wheat plants cv. Arina, spray 0.02% active ingredient, inoculated one day after application, assessed 11 days after inoculation
Method: Action Against Septoria nodorum/wheat (Septoria Leaf Spot on Wheat)
1 week old wheat plants cv. […] One day after application wheat plants are inoculated by spraying a spore suspension (5×10^5 conidia/ml) on the test plants. After an incubation period of 1 day at 20° C. and 95% r. h. plants are kept for 10 days at 20° C. and 60% r.h. in a greenhouse. The disease incidence is assessed 11 days after inoculation.

Measured: efficacy (disease incidence)

CC1CC(C)(C)c2cccc(NC(=O)c3cn(C)cc3C(F)(F)C(F)(F)F)c21 (racemic) [Compound 10.5]
strong efficacy: all assays above

Cc1cn(C)cc1C(=O)Nc1ccccc1C1=CCCCC1 [Compound 1.5]
strong efficacy: all assays above

Cc1cn(C)cc1C(=O)Nc1ccccc1C1CCCCC1 [Compound 1.9]
strong efficacy: all assays above

Cc1cn(C)cc1C(=O)Nc1ccccc1-c1ccc(Cl)cc1 [Compound 1.23]
strong efficacy: all assays above

Cc1cn(C)cc1C(=O)Nc1ccccc1-c1ccncc1F [Compound 1.46]
strong efficacy: all assays above

Cn1cc(C(=O)Nc2ccccc2-c2ccc(Cl)cc2)c(C(F)F)c1 [Compound 1.144]
strong efficacy: all assays above

Cn1cc(C(=O)Nc2ccccc2C2=CCCCC2)c(C(F)(F)C(F)(F)F)c1 [Compound 1.183]
strong efficacy: all assays above

Cn1cc(C(=O)Nc2ccccc2C2CCCCC2)c(C(F)(F)C(F)(F)F)c1 [Compound 1.187]
strong efficacy: all assays above

Cn1cc(C(=O)Nc2ccccc2-c2ccc(Cl)cc2)c(C(F)(F)C(F)(F)F)c1 [Compound 1.190]
strong efficacy: all assays above

Cn1cc(C(=O)Nc2ccccc2-c2ccc(F)cc2)c(C(F)(F)C(F)(F)F)c1 [Compound 1.192]
strong efficacy: all assays above

Cn1cc(C(=O)Nc2ccccc2C2CCCCC2)c(C2CC2)c1 [Compound 1.206]
strong efficacy: all assays above

Cn1cc(C(=O)Nc2ccccc2-c2ccncc2F)c(C2CC2)c1 [Compound 1.244]
strong efficacy: all assays above

CCc1cn(C)cc1C(=O)Nc1ccccc1-c1ccc(Cl)cc1 [Compound 1.260]
strong efficacy: all assays above

CCc1cn(C)cc1C(=O)Nc1ccccc1-c1ccc(F)cc1 [Compound 1.261]
strong efficacy: all assays above

CCc1cn(CC)cc1C(=O)Nc1ccccc1-c1ccc(Cl)cc1 [Compound 1.265]
strong efficacy: all assays above
